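Results reflect a 48-hour exposure of cells in 96-well plates to compound at five concentrations. GI50 = concentration required for 50% inhibition of growth.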 Active and inactive are the calls of the source. No stated cut-off is given here; in the data, active = GI50 up to about 1.1 µM and inactive = higher.
Key:
Test in all cases: DTP human tumour cell line panel, 48 h
A498 = test system: A498
BT-549 = test system: BT-549
EKVX = test system: EKVX
Hs-578T = test system: Hs-578T
LOX IMVI = test system: LOX IMVI
NCI-H23 = test system: NCI-H23
NCI-H460 = test system: NCI-H460
OVCAR-3 = test system: OVCAR-3
SF-295 = test system: SF-295
SK-MEL-28 = test system: SK-MEL-28
SK-MEL-2 = test system: SK-MEL-2
SN12C = test system: SN12C
SNB-19 = test system: SNB-19
SR = test system: SR
T47D = test system: T47D
TK-10 = test system: TK-10
UACC-62 = test system: UACC-62
COLO 205 = test system: COLO 205
HL-60 = test system: HL-60

Compound | GI50 (A498) | GI50 (BT-549) | GI50 (EKVX) | GI50 (Hs-578T) | GI50 (LOX IMVI) | GI50 (NCI-H23) | GI50 (NCI-H460) | GI50 (OVCAR-3) | GI50 (SF-295) | GI50 (SK-MEL-28) | GI50 (SK-MEL-2) | GI50 (SN12C) | GI50 (SNB-19) | GI50 (SR) | GI50 (T47D) | GI50 (TK-10) | GI50 (UACC-62) | GI50 (COLO 205) | GI50 (HL-60)
Nc1nc(SCCc2ccccc2)c2nc[nH]c2n1 | 19.1 µM (inactive) | 47.3 µM (inactive) | 25.2 µM (inactive) | 64 µM (inactive) | 41.8 µM (inactive) | 69.5 µM (inactive) | 33.9 µM (inactive) | 45.1 µM (inactive) | 71.9 µM (inactive) | 58.9 µM (inactive) | 30.7 µM (inactive) | 39.4 µM (inactive) | > 100 µM (inactive) | 36.2 µM (inactive) | 40.9 µM (inactive) | 19.6 µM (inactive) | 47.5 µM (inactive) | – | –
COc1ccc2c(c1)CCc1c-2n(CCN2CCOCC2)c2ccc(OC)cc12 | > 100 µM (inactive) | > 100 µM (inactive) | – | 61.7 µM (inactive) | – | > 100 µM (inactive) | 40.5 µM (inactive) | > 100 µM (inactive) | 61.4 µM (inactive) | > 100 µM (inactive) | > 100 µM (inactive) | > 100 µM (inactive) | – | 10.5 µM (inactive) | > 100 µM (inactive) | > 100 µM (inactive) | > 100 µM (inactive) | 32.8 µM (inactive) | –
O=c1oc2ccc(Cl)cc2cc1-c1cn2ccsc2n1 | – | 24.1 µM (inactive) | 26.6 µM (inactive) | 76.4 µM (inactive) | 43.2 µM (inactive) | 51.9 µM (inactive) | 49.9 µM (inactive) | 40 µM (inactive) | 29.2 µM (inactive) | > 100 µM (inactive) | 50.6 µM (inactive) | 57 µM (inactive) | 51.9 µM (inactive) | 24.8 µM (inactive) | 34.5 µM (inactive) | > 100 µM (inactive) | 34.3 µM (inactive) | 36.1 µM (inactive) | 32.3 µM (inactive)
CN[C@@H](Cc1cccc2ccccc12)C(=O)N[C@@H](CC(C)C)B(O)O | < 0.01 µM (active) | < 0.01 µM (active) | – | 0.0143 µM (active) | < 0.01 µM (active) | < 0.01 µM (active) | < 0.0113 µM (active) | < 0.01 µM (active) | < 0.01 µM (active) | < 0.01 µM (active) | < 0.01 µM (active) | < 0.01 µM (active) | < 0.01 µM (active) | < 0.01 µM (active) | < 0.01 µM (active) | < 0.01 µM (active) | < 0.01 µM (active) | < 0.01 µM (active) | < 0.01 µM (active)
CCCCn1c2c(n(CCCC)c1=S)-c1c(n(CCCC)c(=S)n1CCCC)S[Se][Se]S2 | 38.7 µM (inactive) | 4.55 µM (inactive) | 6.01 µM (inactive) | 5.25 µM (inactive) | 6.05 µM (inactive) | 13.2 µM (inactive) | 9.95 µM (inactive) | 0.931 µM (active) | 3.51 µM (inactive) | 16.6 µM (inactive) | 8.75 µM (inactive) | 7.11 µM (inactive) | 5.42 µM (inactive) | 5.19 µM (inactive) | 0.294 µM (active) | 4.42 µM (inactive) | 5.58 µM (inactive) | 1.62 µM (inactive) | –
CCCCCn1c(=O)c2c(=O)[nH][nH]c2c2ccccc21 | > 100 µM (inactive) | > 100 µM (inactive) | – | > 100 µM (inactive) | > 100 µM (inactive) | > 100 µM (inactive) | > 100 µM (inactive) | > 100 µM (inactive) | > 100 µM (inactive) | > 100 µM (inactive) | > 100 µM (inactive) | > 100 µM (inactive) | – | > 100 µM (inactive) | > 100 µM (inactive) | > 100 µM (inactive) | > 100 µM (inactive) | > 100 µM (inactive) | > 100 µM (inactive)
CC(C)c1c(P(=O)(c2ccccc2)c2ccccc2)n(C)c2ccccc12 | > 100 µM (inactive) | > 100 µM (inactive) | > 100 µM (inactive) | > 100 µM (inactive) | > 100 µM (inactive) | 40.5 µM (inactive) | 66.8 µM (inactive) | 26.4 µM (inactive) | 45.6 µM (inactive) | 76.7 µM (inactive) | 88.3 µM (inactive) | > 100 µM (inactive) | 95.9 µM (inactive) | 49.9 µM (inactive) | 77.1 µM (inactive) | > 100 µM (inactive) | – | 32.4 µM (inactive) | 28.1 µM (inactive)
COC1OC(C)/C(=N/O)C2OC(C)(C)OC12 (stereo not given) | > 100 µM (inactive) | > 100 µM (inactive) | > 100 µM (inactive) | > 100 µM (inactive) | > 100 µM (inactive) | > 100 µM (inactive) | > 100 µM (inactive) | > 100 µM (inactive) | > 100 µM (inactive) | > 100 µM (inactive) | – | > 100 µM (inactive) | > 100 µM (inactive) | > 100 µM (inactive) | > 100 µM (inactive) | > 100 µM (inactive) | > 100 µM (inactive) | > 100 µM (inactive) | > 100 µM (inactive)
O=C(Nc1ccccc1)c1cc2ccccc2c(/N=N\c2cccc([N+](=O)[O-])c2)c1O | > 100 µM (inactive) | > 100 µM (inactive) | 39 µM (inactive) | 21.2 µM (inactive) | – | > 100 µM (inactive) | > 100 µM (inactive) | > 100 µM (inactive) | > 100 µM (inactive) | 94.4 µM (inactive) | > 100 µM (inactive) | > 100 µM (inactive) | 31 µM (inactive) | 38.2 µM (inactive) | > 100 µM (inactive) | > 100 µM (inactive) | > 100 µM (inactive) | > 100 µM (inactive) | –
CN1C2CCC1CC(=CCOC(c1ccc(F)cc1)c1ccc(F)cc1)C2 | 14.7 µM (inactive) | 16.3 µM (inactive) | 18.8 µM (inactive) | 11.9 µM (inactive) | 16.8 µM (inactive) | 17.7 µM (inactive) | 17.2 µM (inactive) | 17 µM (inactive) | 16.9 µM (inactive) | 18.9 µM (inactive) | 19.1 µM (inactive) | 17.3 µM (inactive) | 21.2 µM (inactive) | 15.8 µM (inactive) | 17.6 µM (inactive) | 14.9 µM (inactive) | 15.1 µM (inactive) | 11 µM (inactive) | 13.6 µM (inactive)
N#CC(C#N)/N=N/c1ccc(-c2nc3ccccc3[nH]2)cc1 | > 100 µM (inactive) | 11 µM (inactive) | 50.7 µM (inactive) | 52 µM (inactive) | 14.7 µM (inactive) | 20 µM (inactive) | 94.6 µM (inactive) | 13.8 µM (inactive) | > 100 µM (inactive) | 20.2 µM (inactive) | 21.7 µM (inactive) | > 100 µM (inactive) | > 100 µM (inactive) | 18.5 µM (inactive) | 16.6 µM (inactive) | 30.8 µM (inactive) | – | 7.57 µM (inactive) | 0.288 µM (active)
CC1(C)/C(=N\Nc2ccc([N+](=O)[O-])cc2[N+](=O)[O-])C2CCC1C2 (stereo not given) | – | > 100 µM (inactive) | > 100 µM (inactive) | 5.41 µM (inactive) | > 100 µM (inactive) | > 100 µM (inactive) | > 100 µM (inactive) | > 100 µM (inactive) | 15.2 µM (inactive) | > 100 µM (inactive) | > 100 µM (inactive) | > 100 µM (inactive) | > 100 µM (inactive) | > 100 µM (inactive) | > 100 µM (inactive) | > 100 µM (inactive) | > 100 µM (inactive) | > 100 µM (inactive) | > 100 µM (inactive)
O=C(O)C1CC2(C1)CC(C(=O)O)C2 (stereo not given) | > 100 µM (inactive) | > 100 µM (inactive) | > 100 µM (inactive) | > 100 µM (inactive) | > 100 µM (inactive) | > 100 µM (inactive) | > 100 µM (inactive) | > 100 µM (inactive) | > 100 µM (inactive) | > 100 µM (inactive) | > 100 µM (inactive) | > 100 µM (inactive) | > 100 µM (inactive) | > 100 µM (inactive) | > 100 µM (inactive) | > 100 µM (inactive) | > 100 µM (inactive) | > 100 µM (inactive) | –
C[C@@H]1C(=O)CC2(O)[C@@]13C[C@@H](OC(=O)[C@@H]3O)[C@@H](C)[C@@]21COC1=O (stereo not given in full) | – | > 100 µM (inactive) | > 100 µM (inactive) | > 100 µM (inactive) | > 100 µM (inactive) | > 100 µM (inactive) | > 100 µM (inactive) | > 100 µM (inactive) | > 100 µM (inactive) | > 100 µM (inactive) | > 100 µM (inactive) | > 100 µM (inactive) | > 100 µM (inactive) | > 100 µM (inactive) | > 100 µM (inactive) | > 100 µM (inactive) | > 100 µM (inactive) | > 100 µM (inactive) | > 100 µM (inactive)
Cc1cc(O)c(C=O)c2c1C(=O)Oc1c(CO)c(O)c3c(c1O2)C(O)OC3=O (stereo not given) [SLAZINIC ACID] | 58.3 µM (inactive) | > 100 µM (inactive) | > 100 µM (inactive) | 31.6 µM (inactive) | 82.2 µM (inactive) | > 100 µM (inactive) | – | 77.1 µM (inactive) | > 100 µM (inactive) | 91.8 µM (inactive) | 97.1 µM (inactive) | > 100 µM (inactive) | 21.4 µM (inactive) | 22.6 µM (inactive) | 54.5 µM (inactive) | > 100 µM (inactive) | 59 µM (inactive) | > 100 µM (inactive) | 30.1 µM (inactive)
